Source: US9604975B2, “Indolyl-pyridone derivatives having checkpoint kinase 1 inhibitory activity” (Vernalis (R&D) Ltd., priority 2009, dated 2017)

Target: T1, CHK1 (Homo sapiens, UniProt O14757)
T1 construct: His; purchased Invitrogen
T1 sequence (O14757 1-476): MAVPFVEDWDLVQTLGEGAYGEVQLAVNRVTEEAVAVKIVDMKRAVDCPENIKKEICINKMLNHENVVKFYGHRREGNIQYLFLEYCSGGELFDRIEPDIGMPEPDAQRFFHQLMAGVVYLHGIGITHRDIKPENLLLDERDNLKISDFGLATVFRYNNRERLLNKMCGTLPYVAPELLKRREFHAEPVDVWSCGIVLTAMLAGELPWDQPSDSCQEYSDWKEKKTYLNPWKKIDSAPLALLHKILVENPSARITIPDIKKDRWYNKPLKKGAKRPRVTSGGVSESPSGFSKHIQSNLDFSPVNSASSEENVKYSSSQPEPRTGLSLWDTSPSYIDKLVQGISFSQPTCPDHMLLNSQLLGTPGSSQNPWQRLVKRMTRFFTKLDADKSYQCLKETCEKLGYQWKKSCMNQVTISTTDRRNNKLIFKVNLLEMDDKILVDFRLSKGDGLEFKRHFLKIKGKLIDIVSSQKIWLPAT
Experiment: CHK1 Enzyme Assay (phosphorylation of Chktide peptide, 33P-ATP filter assay)
Type: biochemical
Settings: 12.5 nM His-CHK1, 0.01 mM ATP, 40 minutes at 30° C.; read-out: CHK1 Enzyme Activity (IC50 range)
Procedure: Assays for the CHK1 kinase activity were carried out by monitoring the phosphorylation of a synthetic peptide Chktide with the amino acid sequence, […]. The assay mixture containing the inhibitor and CHK1 enzyme was mixed together in a microtiter plate in a final volume of 50 μl and incubated for 40 minutes at 30° C.
The assay mixture contained 0.01 mM unlabeled ATP, 0.5 μCi ^33P-γ-ATP, 14.8 μM Chktide, 0.1 mg/mL BSA, 50 mM Hepes-NaOH pH 7.5 and 12.5 nM His-CHK1 (Invitrogen) enzyme. The reaction was stopped by adding 50 μL of 50 mM phosphoric acid. 90 μL of the mixture was transferred to a pre-wetted 96-well multi-screen MAPHNOB filtration plate (Millipore) and filtered on a vacuum manifold. The filter plate was washed with 3 successive additions of 200 μl 50 mM phosphoric acid and then with 100 μL methanol. The filtration plate was dried for 10 min at 65° C., scintillant added and phosphorylated peptide quantified in a scintillation counter (Trilux, PerkinElmer).

SMILES | IC50 [nM]
Cc1ccc(Cn2cc(C(=O)Nc3c[nH]c(=O)c(-c4cc5cc(OCCN6CCCC(F)C6)ccc5[nH]4)c3)cn2)cc1 (centres unmarked) [Example 116, 1-(4-Methyl-benzyl)-1H-pyrazole-4-carboxylic acid (5-{5-[2-(3-fluoro-piperidin-1-yl)-ethoxy]-1H-indol-2-yl}-6-oxo-1,6-dihydro-pyridin-3-yl)-amide] | < 100
O=C(Nc1cnn(Cc2ccc(F)nc2)c1)c1c[nH]c(=O)c(-c2cc3ccccc3[nH]2)c1 [Example 110, 5-(1H-Indol-2-yl)-6-oxo-1,6-dihydro-pyridine-3-carboxylic acid [1-(6-fluoro-pyridin-3-ylmethyl)-1H-pyrazol-4-yl]-amide] | 100 to 500
Cc1ccc(Cn2cc(C(=O)Nc3c[nH]c(=O)c(-c4cc5cc(CN(C)CCO)ccc5[nH]4)c3)cn2)cc1 [Example 43, 1-(4-Methyl-benzyl)-1H-pyrazole-4-carboxylic acid [5-(5-{[(2-hydroxy-ethyl)-methyl-amino]-methyl}-1H-indol-2-yl)-6-oxo-1,6-dihydro-pyridin-3-yl]-amide] | < 100
CN1CCN(Cc2ccc3[nH]c(-c4cc(NC(=O)c5cnn(Cc6ccccc6)c5)c[nH]c4=O)cc3c2)CC1 [Example 58, 1-Benzyl-1H-pyrazole-4-carboxylic acid {5-[5-(4-methyl-piperazin-1-ylmethyl)-1H-indol-2-yl]-6-oxo-1,6-dihydro-pyridin-31}-amide] | < 100
C[C@H](c1ccccc1)n1cc(C(=O)Nc2c[nH]c(=O)c(-c3cc4cc(CN5CCCCC5)ccc4[nH]3)c2)cn1 [Example 168, 1-((R)-1-Phenyl-ethyl)-1H-pyrazole-4carboxylic acid [6-oxo-5-(5-piperidin-1-ylmethyl-1H-indol-2-yl)-1,6-dihydro-pyridin-3-yl]-amide] | < 100
CN(C)CCCOc1ccc2[nH]c(-c3cc(NC(=O)c4cnn(Cc5ccccc5)c4)c[nH]c3=O)cc2c1 [Example 145, 1-Benzyl-1H-pyrazole-4-carboxylic acid {5-[5-(3-dimethylamino-propoxy)-1H-indol-2-yl]-6oxo-1,6-dihydro-pyridin-3-yl}-amide] | < 100
O=C(Nc1c[nH]c(=O)c(-c2cc3ccccc3[nH]2)c1)c1cnn(Cc2ccc(F)c(F)c2)c1 [Example 24, 1-(3,4-Difluoro-benzyl)-1H-pyrazole-4-carboxylic acid [5-(1H-indol-2-yl)-6-oxo-1,6-dihydro-pyridin-3-yl]-amide] | < 100
C[C@H](c1ccccc1)n1cc(C(=O)Nc2c[nH]c(=O)c(-c3cc4ccccc4[nH]3)c2)cn1 [Example 161, 1-((R)-1-Phenyl-ethyl)-1H-pyrazole-4-carboxylic acid [5-(1H-indol-2-yl)-6-oxo-1,6-dihydro-pyridin-3-yl]-amide] | < 100
O=C(Nc1cnn(Cc2ccc(F)c(F)c2)c1)c1c[nH]c(=O)c(-c2cc3cc(CNCCO)ccc3[nH]2)c1 [Example 103, 5-{5-[(2-Hydroxyethylamino)-methyl]-1H-indol-2yl}-6-oxo-1,6-dihydropyridine-3-carboxylic acid[1-(3,4-difluorobenzyl)-1H-pyrazol-4-yl]-amide] | < 100
Cc1ccc(Cn2cc(C(=O)Nc3c[nH]c(=O)c(-c4cc5cc(CN6C[C@@H](C)O[C@@H](C)C6)ccc5[nH]4)c3)cn2)cc1 [Example 74, 1-(4-Methyl-benzyl)-1H-pyrazole-4-carboxylic acid {5-[5-(cis-2,6-dimethyl-morpholin-4-ylmethyl)-1H-indol-2-yl]-6-oxo-1,6-dihydro-pyridin-3-yl}-amide] | < 100
CN(C)CCN(C)Cc1ccc2[nH]c(-c3cc(NC(=O)c4cnn(Cc5ccccc5)c4)c[nH]c3=O)cc2c1 [Example 170, 1-Benzyl-1H-pyrazole-4-carboxylic acid [5-(5-{1(2-dimethylamino-ethyl)-methyl-aminol-methyl}-1H-indol-2-yl)-6-oxo-1,6-dihydro-pyridin-3-yl]-amide] | < 100
CC1CCN(Cc2ccc3[nH]c(-c4cc(NC(=O)c5cnn([C@H](C)c6ccccc6)c5)c[nH]c4=O)cc3c2)CC1 [Example 167, 1-((R)-1-Phenyl-ethyl)-1H-pyrazole-4-carboxylic acid {5-[5-(4-methyl-piperidin-1-ylmethyl)-1H-indol-2-yl]-6-oxo-1,6-dihydro-pyridin-3-yl}-amide] | < 100
CN1CCN(C(=O)c2ccc3[nH]c(-c4cc(C(=O)Nc5cnn(Cc6ccccc6)c5)c[nH]c4=O)cc3c2)CC1 [Example 15, 5-[5-(4-Methyl-piperazine-1-carbonyl)-1H-indol-2-yl]-6-oxo-1,6-dihydro-pyridine-3-carboxylic acid (1-benzyl-1H-pyrazol-4-yl)-amide] | < 100
Cc1ccc(Cn2cc(C(=O)Nc3c[nH]c(=O)c(-c4cc5cc(CN6CCN(C)CC6)ccc5[nH]4)c3)cn2)cc1 [Example 59, 1-(4-Methyl-benzyl)-1H-pyrazole-4-carboxylic acid {5-[5-(4-methyl-piperazin-1-ylmethyl)-1H-indol-2-yl]-6-oxo-1,6-dihydro-pyridin-3-yl}-amide] | < 100
CC1CN(Cc2ccc3[nH]c(-c4cc(NC(=O)c5cnn(Cc6ccccc6)c5)c[nH]c4=O)cc3c2)CC(C)O1 (centres unmarked) [Example 69, 1-Benzyl-1H-pyrazole-4-carboxylic acid {5-[5-(2,6-dimethyl-morpholin-4-ylmethyl)-1H-indol-2-yl]-6-oxo-1,6-dihydro-pyridin-3-yl}-amide] | < 100
O=C(Nc1cnn(Cc2ccc(F)c(F)c2)c1)c1c[nH]c(=O)c(-c2cc3ccccc3[nH]2)c1 [Example 11, 5-(1H-Indol-2-yl)-6-oxo-1,6-dihydro-pyridine-3-carboxylic acid [1-(3,4-difluoro-benzyl)-1H-pyrazol-4-yl]-amide] | < 100
Cc1ccc(Cn2cc(C(=O)Nc3c[nH]c(=O)c(-c4cc5cc(OCCN6CCCCC6)ccc5[nH]4)c3)cn2)cc1 [Example 115, 1-(4-Methyl-benzyl)-1H-pyrazole-4-carboxylic acid {6-oxo-5-[5-(2-piperidin-1-yl-ethoxy)-1H-indol-2-yl]-1,6-dihydro-pyridin-3-yl}-amide] | < 100
CC(C)(C)c1ccc(Cn2cc(C(=O)Nc3c[nH]c(=O)c(-c4cc5cc(OCCN6CCCCC6)ccc5[nH]4)c3)cn2)cc1 [Example 151, 1-(4-tert-Butylbenzyl)-1H-pyrazole-4-carboxylic acid {5-[5-(2-piperidin-1-ylethoxy)-1H-indol-2-yl)-6-oxo-1,6-dihydropyridin-3-yl}-amide] | < 100
CCc1cccc(Cn2cc(C(=O)Nc3c[nH]c(=O)c(-c4cc5cc(OCCN6CCN(C)CC6)ccc5[nH]4)c3)cn2)c1 [Example 133, 1-(3-Ethyl-benzyl)-1H-pyrazole-4-carboxylic acid (5-{5-[2-(4-methyl-piperazin-1-yl)-ethoxy]-1H-indol-2-yl}-6-oxo-1,6-dihydro-pyridin-3-yl)-amide] | < 100
O=C(Nc1c[nH]c(=O)c(-c2cc3cc(CN4CCOCC4)ccc3[nH]2)c1)c1cnn(Cc2ccc(Cl)cc2)c1 [Example 67, 1-(4-Chloro-benzyl)-1H-pyrazole-4-carboxylic acid [5-(5-morpholin-4-ylmethyl-1H-indol-2-yl)-6-oxo-1,6-dihydro-pyridin-3-yl]-amide] | < 100
